How the values were obtained:
[1] = target: Phosphatidylinositol 4,5-bisphosphate 3-kinase catalytic subunit alpha isoform (Homo sapiens, UniProt P42336); test: Inhibition of PI3Kalpha (unknown origin) using PIP2:PS as substrate preincubated for 1 hr followed by ATP and substate addition and measured after 1 hr by ADP-glo reagent based assay
[2] = system: T47D; test: Antiproliferative activity against human T47D cells expressing PIK3CA mutant assessed as cell growth inhibition incubated for 72 hrs by MTT assay; assay type: functional, cell-based
[3] = system: Kasumi 1; test: Antiproliferative activity against human Kasumi 1 cells assessed as cell growth inhibition incubated for 72 hrs by MTT assay; assay type: functional, cell-based; details: Kasumi 1, 72 h
[4] = target: T1, Phosphatidylinositol 4,5-bisphosphate 3-kinase catalytic subunit delta isoform (Homo sapiens, UniProt O00329); test: Inhibition of PI3Kdelta (unknown origin) using PIP2:PS as substrate preincubated for 1 hr followed by ATP and substate addition and measured after 1 hr by ADP-glo reagent based assay
T1 sequence (O00329 whole entry): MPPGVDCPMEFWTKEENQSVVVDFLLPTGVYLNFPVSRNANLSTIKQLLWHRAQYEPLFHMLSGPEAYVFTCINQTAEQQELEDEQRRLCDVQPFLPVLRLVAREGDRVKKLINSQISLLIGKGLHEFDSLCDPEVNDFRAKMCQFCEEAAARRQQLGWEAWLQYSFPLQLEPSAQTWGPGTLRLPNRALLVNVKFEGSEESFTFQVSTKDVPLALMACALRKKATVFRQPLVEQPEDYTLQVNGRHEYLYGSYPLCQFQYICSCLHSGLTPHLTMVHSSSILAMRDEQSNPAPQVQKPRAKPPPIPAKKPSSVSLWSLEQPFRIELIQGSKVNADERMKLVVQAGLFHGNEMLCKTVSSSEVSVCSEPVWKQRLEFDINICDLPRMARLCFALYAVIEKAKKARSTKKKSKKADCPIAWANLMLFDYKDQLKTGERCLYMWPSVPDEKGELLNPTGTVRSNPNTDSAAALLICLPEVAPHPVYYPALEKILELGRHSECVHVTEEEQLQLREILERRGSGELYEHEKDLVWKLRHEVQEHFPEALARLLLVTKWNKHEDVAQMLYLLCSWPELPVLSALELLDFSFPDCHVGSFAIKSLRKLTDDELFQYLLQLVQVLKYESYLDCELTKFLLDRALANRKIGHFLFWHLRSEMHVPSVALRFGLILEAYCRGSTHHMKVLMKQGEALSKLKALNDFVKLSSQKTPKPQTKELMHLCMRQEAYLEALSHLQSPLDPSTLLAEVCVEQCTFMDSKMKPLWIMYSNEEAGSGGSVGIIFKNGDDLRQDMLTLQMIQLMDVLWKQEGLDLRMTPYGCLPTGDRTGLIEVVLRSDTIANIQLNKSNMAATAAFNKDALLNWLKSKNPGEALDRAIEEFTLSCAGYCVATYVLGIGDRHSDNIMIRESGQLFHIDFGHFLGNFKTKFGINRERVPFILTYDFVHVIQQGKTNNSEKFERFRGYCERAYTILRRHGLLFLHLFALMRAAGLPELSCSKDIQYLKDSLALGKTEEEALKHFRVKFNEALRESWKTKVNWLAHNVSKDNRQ

[5] = target: Phosphatidylinositol 4,5-bisphosphate 3-kinase catalytic subunit gamma isoform (Homo sapiens, UniProt P48736); test: Inhibition of PI3Kgamma (unknown origin) using PIP2:PS as substrate preincubated for 1 hr followed by ATP and substate addition and measured after 1 hr by ADP-glo reagent based assay
[6] = target: Phosphatidylinositol 4,5-bisphosphate 3-kinase catalytic subunit beta isoform (Homo sapiens, UniProt P42338); test: Inhibition of PI3Kbeta (unknown origin) using PIP2:PS as substrate preincubated for 1 hr followed by ATP and substate addition and measured after 1 hr by ADP-glo reagent based assay
[7] = AUC(0 to t) in mouse at 1 mg/kg, iv measured after 24 hrs by LC/MS/MS analysis; assay type: ADME, organism-based; design: dose 1 mg/kg, time 24 hrs, route iv; details: in vivo
[8] = Cmax in mouse at 1 mg/kg, iv measured after 24 hrs by LC/MS/MS analysis; assay type: ADME, organism-based; design: time 24 hrs, dose 1 mg/kg, route iv; details: in vivo
[9] = AUC(0 to t) in mouse at 5 mg/kg, po measured after 24 hrs by LC/MS/MS analysis; assay type: ADME, organism-based; design: dose 5 mg/kg, time 24 hrs, route po; details: in vivo
[10] = Cmax in mouse at 5 mg/kg, po measured after 24 hrs by LC/MS/MS analysis; assay type: ADME, organism-based; design: time 24 hrs, dose 5 mg/kg, route po; details: in vivo
[11] = Oral bioavailability in mouse at 5 mg/kg measured after 24 hrs by LC/MS/MS analysis; assay type: ADME, organism-based; details: in vivo
[12] = Inhibition of PI3K/AKT/mTOR signaling pathway in human T47D cells assessed as reduction in Akt phosphorylation at S473 residue preincubated for 1 hr followed by recombinant human insulin-like growth factor 1 stimulation by Western blot analysis; assay type: cell-based; details: dose 0.01-10 µM
[13] = Clearance in mouse at 1 mg/kg, iv measured after 24 hrs by LC/MS/MS analysis; assay type: ADME, organism-based; details: in vivo
[14] = Half life in mouse at 1 mg/kg, iv measured after 24 hrs by LC/MS/MS analysis; assay type: ADME, organism-based; details: in vivo
[15] = Volume of distribution in mouse at 1 mg/kg, iv measured after 24 hrs by LC/MS/MS analysis; assay type: ADME, organism-based; details: in vivo
[16] = Half life in mouse at 5 mg/kg, po measured after 24 hrs by LC/MS/MS analysis; assay type: ADME, organism-based; details: in vivo
[17] = Volume of distribution in mouse at 5 mg/kg, po measured after 24 hrs by LC/MS/MS analysis; assay type: ADME, organism-based; details: in vivo
[18] = Clearance in mouse at 5 mg/kg, po measured after 24 hrs by LC/MS/MS analysis; assay type: ADME, organism-based; details: in vivo

Chain of Phosphatidylinositol 4,5-bisphosphate 3-kinase catalytic subunit beta isoform (P42338 whole entry, canonical isoform): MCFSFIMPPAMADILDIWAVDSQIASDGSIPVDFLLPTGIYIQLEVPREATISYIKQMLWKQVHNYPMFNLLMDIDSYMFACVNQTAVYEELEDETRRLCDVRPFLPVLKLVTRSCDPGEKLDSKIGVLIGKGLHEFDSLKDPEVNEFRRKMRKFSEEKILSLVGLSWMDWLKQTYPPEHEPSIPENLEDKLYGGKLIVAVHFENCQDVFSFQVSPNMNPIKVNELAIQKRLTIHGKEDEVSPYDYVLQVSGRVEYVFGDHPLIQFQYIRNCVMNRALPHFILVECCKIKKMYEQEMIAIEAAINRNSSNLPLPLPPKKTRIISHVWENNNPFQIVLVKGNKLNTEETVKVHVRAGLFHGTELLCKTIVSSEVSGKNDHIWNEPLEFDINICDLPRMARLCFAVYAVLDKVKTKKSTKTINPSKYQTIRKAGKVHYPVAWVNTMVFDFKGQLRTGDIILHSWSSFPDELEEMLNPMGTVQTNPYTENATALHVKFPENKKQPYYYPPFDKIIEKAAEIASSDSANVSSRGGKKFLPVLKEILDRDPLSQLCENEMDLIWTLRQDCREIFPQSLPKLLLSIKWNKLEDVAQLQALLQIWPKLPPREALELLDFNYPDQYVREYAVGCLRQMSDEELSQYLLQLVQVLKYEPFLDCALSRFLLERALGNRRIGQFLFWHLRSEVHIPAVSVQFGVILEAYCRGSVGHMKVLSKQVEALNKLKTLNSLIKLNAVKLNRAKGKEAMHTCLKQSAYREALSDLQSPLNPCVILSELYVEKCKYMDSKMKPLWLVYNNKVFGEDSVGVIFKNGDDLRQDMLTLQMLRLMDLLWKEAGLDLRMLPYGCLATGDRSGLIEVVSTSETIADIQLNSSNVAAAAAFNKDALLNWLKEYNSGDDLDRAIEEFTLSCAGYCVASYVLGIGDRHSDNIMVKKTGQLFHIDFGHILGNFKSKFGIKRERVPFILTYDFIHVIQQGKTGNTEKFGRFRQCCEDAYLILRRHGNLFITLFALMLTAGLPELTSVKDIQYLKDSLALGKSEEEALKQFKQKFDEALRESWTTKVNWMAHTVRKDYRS
Chain of Phosphatidylinositol 4,5-bisphosphate 3-kinase catalytic subunit alpha isoform (P42336 whole entry, canonical isoform): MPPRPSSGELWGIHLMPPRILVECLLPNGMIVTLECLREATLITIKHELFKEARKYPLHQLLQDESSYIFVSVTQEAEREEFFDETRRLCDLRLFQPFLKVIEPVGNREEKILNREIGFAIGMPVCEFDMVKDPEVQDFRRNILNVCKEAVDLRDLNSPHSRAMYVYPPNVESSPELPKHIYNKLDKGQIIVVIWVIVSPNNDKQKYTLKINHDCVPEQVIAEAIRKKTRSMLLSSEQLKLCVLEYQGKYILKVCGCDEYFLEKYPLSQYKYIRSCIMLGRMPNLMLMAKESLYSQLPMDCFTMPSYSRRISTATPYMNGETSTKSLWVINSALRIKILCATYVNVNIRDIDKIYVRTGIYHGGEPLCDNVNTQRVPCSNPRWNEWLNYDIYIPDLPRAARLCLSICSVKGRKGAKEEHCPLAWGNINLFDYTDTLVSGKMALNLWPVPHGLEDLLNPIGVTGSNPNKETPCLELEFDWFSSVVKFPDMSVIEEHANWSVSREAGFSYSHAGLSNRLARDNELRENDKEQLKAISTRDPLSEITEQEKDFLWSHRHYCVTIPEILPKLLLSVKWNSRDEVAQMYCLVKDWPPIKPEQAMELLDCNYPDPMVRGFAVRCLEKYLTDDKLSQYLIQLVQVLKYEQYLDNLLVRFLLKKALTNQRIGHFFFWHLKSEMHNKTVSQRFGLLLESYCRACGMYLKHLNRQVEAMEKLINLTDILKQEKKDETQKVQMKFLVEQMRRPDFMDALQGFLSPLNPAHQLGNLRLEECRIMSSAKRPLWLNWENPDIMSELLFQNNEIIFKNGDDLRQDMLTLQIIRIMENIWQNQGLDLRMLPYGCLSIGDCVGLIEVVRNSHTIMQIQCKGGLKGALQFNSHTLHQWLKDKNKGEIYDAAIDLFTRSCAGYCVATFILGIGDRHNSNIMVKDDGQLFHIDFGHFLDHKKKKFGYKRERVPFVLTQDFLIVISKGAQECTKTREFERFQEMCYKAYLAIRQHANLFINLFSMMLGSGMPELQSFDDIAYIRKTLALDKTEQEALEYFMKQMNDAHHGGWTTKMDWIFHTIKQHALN
Chain of Phosphatidylinositol 4,5-bisphosphate 3-kinase catalytic subunit gamma isoform (P48736 whole entry, canonical isoform): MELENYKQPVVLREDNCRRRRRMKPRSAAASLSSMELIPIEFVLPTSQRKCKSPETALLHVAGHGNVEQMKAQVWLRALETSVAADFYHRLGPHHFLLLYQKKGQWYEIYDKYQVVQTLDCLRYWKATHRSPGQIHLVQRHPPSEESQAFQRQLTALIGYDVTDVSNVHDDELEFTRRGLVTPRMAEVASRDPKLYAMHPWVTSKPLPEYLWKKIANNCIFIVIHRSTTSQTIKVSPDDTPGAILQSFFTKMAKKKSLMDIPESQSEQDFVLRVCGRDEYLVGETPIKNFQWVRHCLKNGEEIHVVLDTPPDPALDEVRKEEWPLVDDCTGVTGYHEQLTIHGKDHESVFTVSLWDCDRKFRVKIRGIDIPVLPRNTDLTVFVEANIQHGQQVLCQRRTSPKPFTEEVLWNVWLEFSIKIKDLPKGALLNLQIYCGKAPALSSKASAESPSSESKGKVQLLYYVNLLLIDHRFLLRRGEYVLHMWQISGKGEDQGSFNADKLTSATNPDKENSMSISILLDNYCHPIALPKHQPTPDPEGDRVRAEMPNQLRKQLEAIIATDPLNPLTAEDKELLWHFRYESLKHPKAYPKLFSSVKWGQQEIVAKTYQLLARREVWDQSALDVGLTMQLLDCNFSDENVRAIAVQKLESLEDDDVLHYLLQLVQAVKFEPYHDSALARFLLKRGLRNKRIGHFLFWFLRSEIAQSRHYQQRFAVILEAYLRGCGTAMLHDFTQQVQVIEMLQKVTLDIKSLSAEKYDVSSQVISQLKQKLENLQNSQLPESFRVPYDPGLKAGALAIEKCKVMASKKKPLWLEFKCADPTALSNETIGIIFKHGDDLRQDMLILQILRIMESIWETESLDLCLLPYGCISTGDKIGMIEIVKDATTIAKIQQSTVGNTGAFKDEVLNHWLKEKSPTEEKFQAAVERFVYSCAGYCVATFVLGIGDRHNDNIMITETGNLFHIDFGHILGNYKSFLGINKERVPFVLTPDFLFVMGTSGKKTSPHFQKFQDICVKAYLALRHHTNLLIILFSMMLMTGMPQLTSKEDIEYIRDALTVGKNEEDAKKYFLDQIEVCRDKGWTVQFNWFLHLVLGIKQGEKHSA

Compound | IC50 [1] | also measured
CCn1c(=O)c2cnc(C)n2c2ccc(C(=O)NCc3cccnc3)cc21 | 3.63 µM | –
Cc1nc(NC(=O)N2CCC[C@H]2C(N)=O)sc1-c1ccnc(C(C)(C)C(F)(F)F)c1 [ALPELISIB] | – | IC50 [2]: 0.1 µM; IC50 [3]: 0.44 µM
CN1CCC(N2CCN(C(=O)c3ccc4c(c3)[nH]c(=O)c3ccnn34)CC2)CC1 | > 20 µM | –
CCn1c(=O)c2cccn2c2ccc(C(=O)NCc3cccnc3)cc21 | > 20 µM | –
CCCCn1c(=O)c2ccnn2c2ccc(C(=O)NCc3cccnc3)cc21 | 2 µM | –
CCn1c(=O)c2ccnn2c2ccc(C(=O)NCCN3CCOCC3)cc21 | 10.9 µM | –
CCn1c(=O)c2cc(C(C)C)nn2c2ccc(C(=O)NCc3cccnc3)cc21 | > 20 µM | –
O=C(NCc1cccnc1)c1ccc2c(c1)n(CC1CC1)c(=O)c1ccnn12 | 2.65 µM | –
CCN1C(=O)[C@@H]2CCCN2c2ccc(C(=O)NCc3cccnc3)cc21 | > 20 µM | –
Cn1c(=O)c2ccnn2c2ccc(C(=O)NCCN3CCOCC3)cc21 | 12.3 µM | –
CCn1c(=O)c2ccnn2c2ccc(C(=O)NCc3cccnc3C)cc21 | 4.51 µM | –
CCNC(=O)c1ccc2c(c1)n(CCOC)c(=O)c1ccnn12 | 6.43 µM | –
CCn1c(=O)c2ccnn2c2ccc(C(=O)NCCCN3CCOCC3)cc21 | 4.18 µM | –
CC(C)(C)c1ccc(Cn2c(=O)c3ccnn3c3ccc(C(=O)NCc4cccnc4)cc32)cc1 | > 20 µM | –
O=C(NCCN1CCOCC1)c1ccc2c(c1)n(Cc1ccc(F)cc1)c(=O)c1ccnn12 | 9.62 µM | –
CCn1c(=O)c2ccnn2c2ccc(C(=O)NCc3ccccn3)cc21 | 2.86 µM | –
CCn1c(=O)c2ccnn2c2ccc(C(=O)NCc3ccc(C)nc3)cc21 | 3.62 µM | –
O=C(NCc1cccnc1)c1ccc2c(c1)n(Cc1ccc(OC(F)(F)F)cc1)c(=O)c1ccnn12 | > 20 µM | –
CS(=O)(=O)c1ccc(Cn2c(=O)c3ccnn3c3ccc(C(=O)NCc4cccnc4)cc32)cc1 | > 20 µM | –
CCn1c(=O)c2ccnn2c2cc(NC)c(C(=O)NCc3cccnc3)cc21 | > 20 µM | IC50 [4]: > 20 µM; IC50 [5]: > 20 µM; IC50 [6]: 4.89 µM
CCn1c(=O)c2ccnn2c2ccc(C(=O)N3CCN(c4ccccc4)CC3)cc21 | > 20 µM | –
CCn1c(=O)c2ccnn2c2ccc(C(=O)NCc3cncc(C)c3)cc21 | 2.65 µM | –
CCn1c(=O)c2ccnn2c2ccc(C(=O)NCc3cnn(C)c3)cc21 | 5.47 µM | –
CCn1c(=O)c2ccnn2c2ccc(C(=O)N3CCN(C)CC3)cc21 | > 20 µM | –
CCNC(=O)c1ccc2c(c1)n(Cc1ccccc1)c(=O)c1ccnn12 | 3.61 µM | –

Compound | IC50 [1] | also measured
CCn1c(=O)c2ccnn2c2cc(N)c(C(=O)NCc3cccnc3)cc21 | 0.87 µM | IC50 [4]: 5.74 µM; IC50 [5]: 1.4 µM; IC50 [6]: 0.72 µM; AUC(0-t) at 24 h [7]: < 100 ng·h/mL; Cmax [8]: < 50 ng/mL; AUC(0-t) at 24 h [9]: < 100 ng·h/mL; IC50 [3]: 4.38 µM; Cmax [10]: < 50 ng/mL
CCn1c(=O)c2cc(C)nn2c2ccc(C(=O)NCc3cccnc3)cc21 | 11.4 µM | –
CCN1C(=O)N2CCN=C2c2ccc(C(=O)NCc3cccnc3)cc21 | > 20 µM | –
CNC(=O)c1ccc2c(c1)n(CCCN(C)C1CCCCC1)c(=O)c1ccnn12 | 11 µM | –
CCn1c(=O)c2ccnn2c2ccc(C(=O)NCCc3cccnc3)cc21 | 13.9 µM | –
CCn1c(=O)c2ccnn2c2cc(N)c(C(=O)NCc3cncnc3)cc21 | 0.24 µM | bioavailability [11]: 91.8%; IC50 [4]: 4.1 µM; IC50 [5]: 0.83 µM; inhibition [12]: Dose-Dependent Effect; IC50 [6]: > 10 µM; AUC(0-t) at 24 h [7]: 717 ng·h/mL; clearance [13]: 20.5 mL/min/kg; half-life [14]: 2.52 h; Vd [15]: 3.13 L/kg; half-life [16]: 4.97 h; Cmax [8]: 567 ng/mL; Vd [17]: 6.36 L/kg; AUC(0-t) at 24 h [9]: 3290 ng·h/mL; IC50 [2]: 1.82 µM; CL/F [18]: 15.7 mL/min/kg; IC50 [3]: 1.64 µM; Cmax [10]: 863 ng/mL
O=C(c1ccc2c(c1)[nH]c(=O)c1ccnn12)N1CCN(C2CCCC2)CC1 | > 20 µM | –
CCn1c(=O)c2ccnn2c2ccc(C(=O)NCc3cnccc3C)cc21 | 3.52 µM | –
O=C(NCCN1CCOCC1)c1ccc2c(c1)n(Cc1ccccc1)c(=O)c1ccnn12 | 10.3 µM | –
CCNC(=O)c1ccc2c(c1)n(CCCN(C)C)c(=O)c1ccnn12 | 4.26 µM | –
CCN1C(=O)N2CCCN=C2c2ccc(C(=O)NCc3cccnc3)cc21 | > 20 µM | –
CCn1c(=O)c2ccnn2c2cc(N(C)C)c(C(=O)NCc3cccnc3)cc21 | > 20 µM | IC50 [4]: > 20 µM; IC50 [5]: > 20 µM; IC50 [6]: 15 µM
CCn1c(=O)c2ccnn2c2ccc(C(=O)NCc3cnccn3)cc21 | 4.76 µM | –
CCn1c(=O)c2ccnn2c2ccc(C(=O)NCc3cncnc3)cc21 | 1.59 µM | –
CCN1C(=O)C2CCCCN2c2ccc(C(=O)NCc3cccnc3)cc21 (centres undefined) | > 20 µM | –
CCn1c(=O)c2nccn2c2ccc(C(=O)NCc3cccnc3)cc21 | > 20 µM | –
O=C(NCc1cccnc1)c1ccc2c(c1)n(Cc1ccc(C(F)(F)F)cc1)c(=O)c1ccnn12 | > 20 µM | –
CCNC(=O)c1ccc2c(c1)n(CCN1CCCCC1)c(=O)c1ccnn12 | 5.25 µM | –
CCn1c(=O)c2ccnn2c2ccc(C(=O)NCc3ccncc3)cc21 | 2.86 µM | –
CCn1c(=O)c2ccnn2c2cc(NC(C)=O)c(C(=O)NCc3cncnc3)cc21 | > 20 µM | IC50 [4]: > 20 µM; IC50 [5]: > 20 µM; IC50 [6]: > 20 µM
CCn1c(=O)c2ccnn2c2ccc(C(=O)NCc3cccnc3)cc21 | 3.52 µM | –
CCNC(=O)c1ccc2c(c1)n(CC)c(=O)c1ccnn12 | 9.3 µM | –
CCN1C(=O)[C@H]2CCCN2c2ccc(C(=O)NCc3cccnc3)cc21 | > 20 µM | –
CCN1C(=O)N2CC(C)(C)CN=C2c2ccc(C(=O)NCc3cccnc3)cc21 | > 20 µM | –

Reference: ChEMBL document CHEMBL5257112, “Discovery of 4-oxo-4,5-dihydropyrazolo[1,5-a]quinoxaline-7-carboxamide derivatives as PI3Kα inhibitors via virtual screening and docking-based structure optimization” (Bioorg Med Chem, 2023)
